Reference: US8865748B2, “Compounds and compositions for stabilizing hypoxia inducible factor-2 alpha as a method for treating cancer” (Akebia Therapeutics Inc., priority 2011, dated 2014)

How the values were obtained:
Format in all cases: cell-based
[1] = test system: phosphoglycerate kinase (PGK) mRNA; test: Phosphoglycerate kinase (PGK) mRNA expression in wild type murine embryonic fibroblasts (quantitative PCR); conditions: hypoxic conditions (1% O2); 1, 10 and 100 μM; vs. hypoxia control; FIG. 2A
Protocol: Total RNA was isolated from tissues and cells by using TRIzol™ Reagent (Invitrogen) and the RNeasy kit (Qiagen), respectively. 1 μg RNA was used for reverse transcription using SuperScript II First-Strand Synthersis System (Invitrogen). cDNA's were amplified in a SYR Green or TaqMan Universal Master Mix (Applied Biosystems). Quantitative PCR (qPCR) was performed on ABI Prism 7700 sequence detection system. PCR conditions are: 10 min at 95° C., 40 cycles of 15 seconds at 95° C. and 1 minute at 60° C. The relative amount of mRNA was calculated after normalization to β-actin.
Cells were cultured in DMEM (#11965-092, Invitrogen) supplemented with 10% fetal bovine serum (Invitrogen), 100 U/mL penicillin and […] streptomycin. For glucose deprivation, DMEM without glucose (#11966-025, Invitrogen) was used.
Mouse embryonic fibroblasts (MEFs) were isolated from E12.5 embryos and immortalized by stable transfection with SV40 large T antigen.

[2] = test system: sVEGFR-1; test: sVEGFR-1 transcription in bone marrow-derived macrophages from LysMcre control and HIF-2α^flox/flox/LysMcre mice; conditions: FIG. 11F
From the text: HIF-2α^flox/flox mice (originally developed by Dr. Celeste Simon, University of Pennsylvania) and LysMcre recombinase mice (originally developed by Irmgard Foerster, University of Duesseldorf) (both purchased from The Jackson Laboratory, Bar Harbor, Me.) were crossed to generate mice homozygous for both LysMcre and the floxed HIF-2α allele. LysMcre recombinase mice, which express no floxed alleles, were used as controls. Deletion of HIF-2α in HIF-2α^flox/flox/LysMcre macrophages, but not the LysMcre control macrophages, was confirmed at the transcript level by real-time PCR.
To generate bone marrow-derived macrophages (BDMs), femoral bone marrow was isolated and progenitor cells were plated in RPMI-1640 supplemented with 10% FBS, 1% PSA, 10 μg/mL of polymyxin B, and 20 ng/mL of recombinant murine M-CSF. Cells were cultured for 5 days with the addition of fresh M-CSF every other day. […]
Human monocytes were left untreated or were stimulated with 100 ng/mL GM-CSF at normoxia or at 0.5% O2. […] Data were analyzed according to the comparative threshold method and normalized against the β-actin internal control transcript. Results are semi-quantitative and represent the fold difference in transcript levels in a particular sample as compared with levels in untreated cells from the same donor. […]

[3] = test system: VEGF; test: VEGF production by human peripheral blood monocytes (ELISA, real-time PCR); conditions: FIG. 11C
Protocol: Human peripheral blood mononuclear cells (PBMCs) were isolated from fresh peripheral blood leukocyte source packs (American Red Cross, Columbus Ohio) by density gradient centrifugation over Lymphocyte Separation Medium (Cellgro). Monocytes were purified from total PBMCs by layering over FBS. Monocytes were cultured in endotoxin-free RPMI-1640 supplemented with 1% fetal bovine serum (FBS), 0.1% human serum albumin (HSA), and 10 μg/mL of the endotoxin inhibitor polymyxin B. In some experiments, freshly isolated monocytes were differentiated into macrophages by three-day culture in media containing 10% FBS, 1% PSA (penicillin G sodium, streptomycin sulfate, and amphotericin B), and 20 ng/mL M-CSF. Macrophages were serum-starved for 2 hours prior to stimulation. Monocytes or monocyte-derived macrophages were treated for 24 hours with 10 ng/mL GM-CSF, 10 μM disclosed HIF-2α stabilizer, or an equivalent volume of the vehicle controls (PBS or DMSO, respectively). Cell-free culture supernatants were harvested and analyzed for VEGF or sVEGFR-1 by ELISA (R&D Systems).
Human monocytes were left untreated or were stimulated with 100 ng/mL GM-CSF at normoxia or at 0.5% O2. At various time-points, cells were harvested in Trizol reagent (Invitrogen) and RNA was extracted in chloroform and then purified using the RNeasy Minikit (Qiagen). In murine studies, organs harvested at the time of euthanasia were flash-frozen in liquid nitrogen, pulverized in liquid nitrogen, and then dissolved in Trizol. cDNA was generated from 1 μg of RNA using the Superscript First Strand Synthesis System (Invitrogen) and used for real-time PCR using previously described primers and SYBR Green PCR Master Mix (Applied Biosciences), according to the manufacturer's instructions. Data were analyzed according to the comparative threshold method and normalized against the β-actin internal control transcript. Results are semi-quantitative and represent the fold difference in transcript levels in a particular sample as compared with levels in untreated cells from the same donor.
VEGF protein was undetectable in the supernatants of GM-CSF-stimulated monocytes, due to neutralization of VEGF by sVEGFR-1 (FIG. 11C).
Since monocyte production of VEGF was dependent on HIF-1α, the inventors herein determined whether selective stabilization of HIF-1α via inhibition of PHD2 would increase monocyte production of VEGF but not sVEGFR-1. In order to make such determination, human peripheral blood monocytes were stimulated with GM-CSF in the presence of a selective inhibitor of PHD2 which results in the stabilization of HIF-1α.

O=C(O)CNC(=O)c1ncc(-c2cccc(F)c2)cc1O [disclosed HIF-2α stabilizer, {[5-(3-Fluorophenyl)-3-hydroxypyridine-2-carbonyl]amino}acetic acid]
PGK mRNA (relative amount) [1]: dramatic reduction | sVEGFR-1 transcription ([2]; HIF-2α-deficient macrophages, p=0.881): not | sVEGFR-1 transcription ([2]; control macrophages, p=0.036): induced | VEGF production, transcript levels by real-time PCR ([3]; GM-CSF alone vs. GM-CSF and stabilizer, p=0.556): no difference | production of VEGF protein (free VEGF ELISA) ([3]; same supernatants as sVEGFR-1, 10 μM stabilizer, p=0.133): did not significantly increase
